Paper PMC7346113, “Screening of Natural Stilbene Oligomers from Vitis vinifera for Anticancer Activity on Human Hepatocellular Carcinoma Cells” (Antioxidants, 2020)

Key:
Format in all cases: cell-based, human
[1] = test system: intracellular ROS in HepG2; assay: Intracellular ROS, H2DCF-DA assay, flow cytometry
Procedure: Intracellular levels of reactive oxygen species (ROS) were measured using the cell-permeant 2’,7’ dichlorodihydrofluorescein diacetate (H2DCF-DA) probe (Molecular Probes, Eugene, OR, USA), which permeates living cells and is deacetylated and oxidized upon ROS exposure inside the cell, forming the fluorescent 2’,7’-dichlorofluorescein (DCF).
HepG2 cells were cultured in a 6-well cell culture plate at a density of 2 × 10^5 cells per well 24 h before starting the treatment with R2-viniferin. The medium was renewed and cells were incubated with R2-viniferin as described above. After treatment, cells were washed and incubated with 20 μM H2DCF-DA or 4 μM MitoSOX™ for 30 min at 37 °C in the dark. The probe solution was then withdrawn and, after washing with PBS, the cells were trypsinized. The fluorescence intensity from living cells was measured by flow cytometry (DCF λex = 485/20 and λem = 528/20, MitoSOX λex = 485/20 and λem = 620/20) in a Beckman Coulter Gallios Flow cytometer in the General Research Services SGIker of the UPV/EHU. At least 10,000 events were detected. Data obtained from flow cytometry were analyzed using Summit 4.3 software (Dako, Hovedstaden, Denmark). Intracellular ROS and mitochondrial O2^− were expressed as the percentage of the fluorescence intensity in control cells at the same time of incubation.

[2] = test system: caspase-3 activity in HepG2; assay: Caspase-3 activity, Ac-DEVD-AMC fluorogenic substrate
Procedure: The activity of caspase-3 was measured using the specific synthetic tetrapeptide fluorogenic substrate Ac-DEVD-AMC (BD Pharmigen Biosciences, San Diego, CA, USA). The assay was carried out in 96-well plates in a total volume of 100 µL, with 37 μM of the substrate and 50 µg of protein in the assay medium in 100 mM HEPES, pH 7.4, containing 200 mM NaCl, 0.2% CHAPS, 2 mM EDTA, 20% glycerol, and 5 mM dithiothreitol (DTT).
In the presence of caspase-3, the Ac-DEVD-AMC substrate is hydrolyzed and the fluorogenic compound AMC is released. The activity was determined by continuous recording of the fluorescence at λex = 360 nm and λem = 460 nm at 37 °C for 2 h every 5 min in a Synergy HT microplate reader (BioTek, Winooski, VT, USA). Results were expressed as the percentage of the fluorescence in control cells.

[3] = test system: Bax and Bcl-2 expression in HepG2 cells; assay: Western blot analysis of Bax and Bcl-2 expression; settings: 24 h
Procedure: HepG2 cells were seeded in Petri dishes, incubated for 24 h and then treated with 5 and 10 µM R2-viniferin. Following 24 h of treatment, the cells were lysed in ice for 30 min with lysis buffer (20 mM HEPES pH 7.5, 1 mM NaF, 10 mM EGTA, 40 mM β-glycerophosphate, 1% NP-40, 2.5 mM MgCl2, 2 mM orthovanadate, and 1 mM DTT) to which 10 μL/mL of a protease inhibitor cocktail (Sigma-Aldrich, St Louis, USA) was added just before use. Cellular fragments were removed by centrifugation at 12,000× g for 10 min at 4 °C, and total protein concentration was determined by Bradford assay. The cellular protein extracts were boiled at 95 °C for 5 min in Laemmli buffer and separated by sodium dodecyl sulfate–polyacrylamide gel electrophoresis in 15% polyacrylamide gels. Proteins were transferred onto polyvinylidene difluoride (PVDF) membranes by electro-blotting with constant amperage (1 mA/cm^2) for 2 h in a wet chamber. After blocking for 1 h in 5% bovine serum albumin (BSA) Tris-buffered saline containing Tween 20 at room temperature, membranes were incubated overnight at 4 °C with antibodies to Bax (Santa Cruz Biotechnology, 1:500), Bcl-2 (Santa Cruz Biotechnology, 1:500) and glyceraldehyde-3-phosphate dehydrogenase (GAPDH, Abcam, 1:2000). After washing, membranes were probed with their corresponding secondary antibody conjugated to horseradish peroxidase for 1 h at room temperature. Specific proteins were detected using the enhanced chemiluminescence (ECL) substrate kit (Clarity Western ECL substrate, Bio-Rad, Hercules, California, USA) and the blots were imaged with the C-DiGit LI-COR blot scanner (Bonsai Advanced technologies S.L. Madrid, Spain). Intensities of target protein bands were determined by densitometry and normalized to the intensity of the loading control GAPDH protein.

Oc1ccc([C@H]2c3c(O)cc(O)cc3[C@H]3c4c(cc(O)cc4[C@@H]2c2cc(/C=C/c4cc(O)cc5c4[C@H](c4cc(O)cc(O)c4)[C@@H](c4ccc(O)cc4)O5)ccc2O)O[C@@H]3c2ccc(O)cc2)cc1 [R2-Viniferin]
Effect on intracellular ROS concentration ([1]; HepG2, 5 and 10 µM, from the first time assayed): increased the intracellular ROS concentration dose-dependently
Effect on intracellular ROS ([1]; HepG2, highest concentration used (10 µM)): ROS remained significantly elevated up to 72 h
Effect on caspase-3 activity ([2]; HepG2, 5 µM): increased caspase-3 activity at 72 h
Effect on caspase-3 activity ([2]; HepG2, 10 µM): increased the caspase-3 activity significantly from 24 h to 72 h
Bax/Bcl-2 ratio increase over control ([3]; HepG2, 5 µM): 39%
Bax/Bcl-2 ratio increase over control ([3]; HepG2, 10 µM): 123%
Expression of anti-apoptotic Bcl-2 proteins ([3]; HepG2, 5 and 10 µM): downregulated
Expression of proapoptotic Bax protein ([3]; HepG2, 5 and 10 µM): upregulated
